The nature of data set [1]: Aqueous kinetic solubility assay. The data set is classed as physicochemical. The following applies: PBS, pH 7.4. An outline of the steps: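 Kinetic solubility from 10 mM MeCN stock spiked into PBS pH 7.4 at 250 μM target, shaken 1 h at 25 °C, then centrifuged. Dissolved compound in supernatant quantified by UPLC/MS with UV at 215 nm; mean of ≥2 experiments.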
Data set [2] in a line: In vitro microsomal stability study. Format: in vitro ADME. The following applies: mouse liver microsomes. Summed up:
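Test compound at 4.6 μM final was incubated at 37 °C with mouse liver microsomes in 0.1 M Tris HCl (pH 7.4), with an NADPH/G6P/G6PDH/MgCl2 cofactor system, and sampled at 0–60 min. Parent remaining relative to t = 0 was measured by LC/MS/MS. t1/2 came from one-phase decay regression, as the mean of at least two independent experiments.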
Background: Liver microsomes are a subcellular fraction often used to study metabolism.

The nature of data set [3]: Maximum tolerated dose (MTD) study in C57BL/6 mice. Format: in vivo, mouse. The following applies: i.p. dose escalation 20, 40, 80, 120 mg kg^–1 over 4 days. Here is the method:
An MTD study was conducted on male C57BL/6 mice (15–19 g, 5 weeks old, SLAC Laboratory Animal Co. Ltd.). Animals were injected via intraperitoneal (i.p.) injection with single administration at 20 mg kg^–1 (N = 18, vehicle: 100% saline at 0.6 mg mL^–1) and multiple administrations for a duration of 4 days at 20 (N = 18, day 1), 40 (N = 18, day 2), 80 (N = 18, day 3), and 120 mg kg^–1 (N = 18, day 4). Clinical observations/samples of plasma, CSF, and brain were collected at 0.25, 0.5, 1, 4, 8, and 24 h. All procedures were performed in accordance with the Ethical Guidelines on the Protection of Animals Used for Scientific Purposes at the DMPK Group at Shanghai ChemPartner Co., Ltd.

The nature of data set [4]: Plasma and brain concentrations in 4L;C* mice. The following applies: 1 h after last dose (day 14). Format: in vivo, mouse. As for the experimental part: 4L;C* mice (C57BL/6 J/129SvEV) were randomly assigned to three treatment groups (N = 4–8 with mixed males and females) and dosed once a day i.p. with 90 or 30 mg kg^–1 of 22m or vehicle. Treatment started at 5 days of age for a duration of 14 days. The application volume was set to 10 μL per gram of body weight, and dosage was adjusted accordingly. Animals of all groups were sacrificed 1 h after the last dose, and the brain tissues and plasma were collected. The left brain containing cortex, cerebella, thalamus, and brainstem was analyzed for SphL levels by MS. Data were analyzed using the Student t test. The right brain containing cortex, cerebella, thalamus, and brainstem and plasma were analyzed for drug levels of 22m. All mice were housed under pathogen-free conditions in the animal facility, and animal experiment was performed according to the IACUC approved protocol (2018-0056) at Cincinnati Children’s Hospital Research Foundation. Wild Type (WT) (GALC+/+) and Twitcher (Twi) (GALC–/−) mice were genotyped by PCR as previously described.[58] Twi mice were randomly assigned to three treatment groups (N = 3 males + N = 3 females for each group) and dosed once a day i.p. with 90 or 30 mg kg^–122m or vehicle for a duration of 20 days. Treatment started at 10 days of age. The application volume was set to 10 μL per gram of body weight, and dosage was adjusted accordingly. Two groups (N = 3 males + N = 3 females for each group) of WT controls treated with vehicle or high dose (90 mg kg^–1) of 22m were also included in the study. Animals of all groups were sacrificed 1 h after the last dose, and the brain tissues and plasma were collected. The left brain containing cortex, cerebella, thalamus, and brainstem was analyzed for SphL levels by MS. Data were analyzed using the Student t test. The right brain containing cortex, cerebella, thalamus, and brainstem and plasma were analyzed for drug levels of 22m. All animal work in this study was performed in accordance with approved animal protocols from the Animal Care and Use Committee at the University of Illinois at Chicago.

We go through one molecule from article PMC7997574, “Lead Optimization of Benzoxazolone Carboxamides as Orally Bioavailable and CNS Penetrant Acid Ceramidase Inhibitors” (Journal of Medicinal Chemistry, 2020).

Each structure is given as a SMILES string. ≈ marks a conversion by molar mass, not a printed value. Where “and” joins values, the source holds several entries; their conditions need not be identical. Equal values may be shown once. Read-outs that look alike come from different tables or passages of the source.

What is called solubility is the dissolved amount per volume that the medium holds. In data set [1], `CC(C)CNC(=O)n1c(=O)oc2cc(C3CCN(C)CC3)ccc21` [22m, N-Isobutyl-6-(1-methyl-4-piperidyl)-2-oxo-1,3-benzoxazole-3-carboxamide] yielded a solubility at 1 h of 240 µM (≈ 79.5 µg/mL). For the same molecule, in data set [2] (% remaining at 60 min), the “m-LM [% at 60 min]” value is 76% and 80%. In addition, the half-life at 4.6 μM in data set [2] (pH 7.4, read-out: m-LM t1/2) was over 1 h. Besides, the “clinical observations in MTD study” value in data set [3] was “no clinical abnormalities were observed”. The concentration at 1 h is 2.61 µM in data set [4] (4L;C* mice, 90 mg kg^–1 i.p., read-out: Cb, u (μM) brain unbounded concentration); 110 µM in data set [4] (both sexes, 4L;C* (C57BL/6 J/129SvEV), mouse, brain, ip, 30 mg kg^–1, 4L;C* mice, 30 mg kg^–1 i.p., read-out: Cb (μM) brain concentration); 0.77 µM in data set [4] (both sexes, 4L;C* (C57BL/6 J/129SvEV), mouse, brain, ip, 30 mg kg^–1, 4L;C* mice, 30 mg kg^–1 i.p., read-out: Cb, u (μM) brain unbounded concentration); 373 µM in data set [4] (both sexes, 4L;C* (C57BL/6 J/129SvEV), mouse, brain, ip, 90 mg kg^–1, 4L;C* mice, 90 mg kg^–1 i.p., read-out: Cb (μM) brain concentration); 2.6 µM in data set [4] (both sexes, 4L;C* (C57BL/6 J/129SvEV), mouse, brain, ip, 90 mg kg^–1, 4L;C* mice, 90 mg kg^–1 i.p., read-out: Cb, u (μM) brain unbounded concentration); 3.08 µM in data set [4] (both sexes, 4L;C* (C57BL/6 J/129SvEV), mouse, plasma, ip, 30 mg kg^–1, 4L;C* mice, 30 mg kg^–1 i.p., read-out: Cp (μM) plasma concentration). Further, the concentration at 1 h in data set [4] (both sexes, 4L;C* (C57BL/6 J/129SvEV), mouse, plasma, ip, 30 mg kg^–1, 4L;C* mice, 30 mg kg^–1 i.p., read-out: Cp,u (μM) plasma unbounded concentration) was 0.42 µM; in data set [4] (both sexes, 4L;C* (C57BL/6 J/129SvEV), mouse, plasma, ip, 90 mg kg^–1, 4L;C* mice, 90 mg kg^–1 i.p., read-out: Cp (μM) plasma concentration) it was 16.8 µM; in data set [4] (both sexes, 4L;C* (C57BL/6 J/129SvEV), mouse, plasma, ip, 90 mg kg^–1, 4L;C* mice, 90 mg kg^–1 i.p., read-out: Cp,u (μM) plasma unbounded concentration) it was 2.32 µM.
